Data set [1] concerns MDA-MB-361. The data set is described as follows: cells. As to conditions: Homo sapiens, MDA-MB-361, 72 h.
The target of data set [2] is Phosphatidylinositol 4,5-bisphosphate 3-kinase catalytic subunit alpha isoform (Homo sapiens, UniProt P42336).
Data set [3] addresses Phosphatidylinositol 4,5-bisphosphate 3-kinase catalytic subunit gamma isoform (Homo sapiens, UniProt P48736). The data set is described as follows: Inhibition of human PI3Kgamma by fluorescence polarization format assay. In general terms: In fluorescence polarisation assays a small probe gives low polarisation when free and higher when bound to something large.
Data set [4] has as its target Serine/threonine-protein kinase mTOR (Homo sapiens, UniProt P42345). The data set is described as follows: Inhibition of mTOR by DELFIA.
A further data set has as its system PC-3. The data set is described as follows: cells. To be noted: Homo sapiens, PC-3, 72 h.
A short description of data set [5]: Inhibition of Akt T308 phosphorylation in human MDA-MB-361 cells by Western blotting. It is filed as cell-based. (In general: A western blot detects proteins with antibodies after separation by electrophoresis.)
The nature of a further data set: in vitro. As to conditions: rat, liver microsomes. Background: Liver microsomes are vesicles of endoplasmic reticulum, rich in cytochrome P450 enzymes.
The subject of data set [6] is Mus musculus. The data set is described as follows: Antitumor activity against human MDA-MB-361 cells implanted in mouse assessed as suppression of P70S6K phosphorylation at 100 mg/kg, iv after 8 hrs. Also noted: dose 100 mg/kg. In kind it is functional, organism-based.
In data set [7] the test system is MDA-MB-361. The data set is described as follows: Antitumor activity against human MDA-MB-361 cells implanted in mouse assessed as inhibition of regrowth at until day 16 and 20 at 50 mg/kg, iv once daily for 5 days. In kind it is functional, organism-based. Also noted: dose 50 mg/kg.
The test system of data set [8] is Mus musculus. The data set is described as follows: Antitumor activity against human MDA-MB-361 cells implanted in mouse assessed as suppression of Akt T308 phosphorylation at 100 mg/kg, iv after 8 hrs. In kind it is functional, organism-based. Also noted: dose 100 mg/kg.
A short description of data set [9]: Metabolic stability in human liver microsomes assessed as half life. In kind it is ADME, Microsome.
The nature of data set [10]: Plasma concentration in human MDA-MB-361 cells implanted mouse at 50 mg/kg, iv after 8 hrs. It is filed as ADME, organism-based. Further details: dose 50 mg/kg, route intravenous.
Data set [11] has as its system Mus musculus. The data set is described as follows: Antitumor activity against human MDA-MB-361 cells implanted in mouse assessed as suppression of S6 phosphorylation at 100 mg/kg, iv after 8 hrs. Also noted: dose 100 mg/kg. In kind it is functional, organism-based.
The test system of data set [12] is MDA-MB-361. The data set is described as follows: Antitumor activity against human MDA-MB-361 cells implanted in mouse assessed as inhibition of regrowth at until day 70 at 100 mg/kg, iv once daily for 5 days. It is filed as functional, organism-based. Further details: dose 100 mg/kg.
The subject of data set [13] is MDA-MB-361. The data set is described as follows: Antitumor activity against human MDA-MB-361 cells implanted in mouse assessed as inhibition of regrowth at until day 16 and 20 at 25 mg/kg, iv once daily for 5 days. Further details: dose 25 mg/kg. It is filed as functional, organism-based.
A short description of data set [14]: Metabolic stability in mouse liver microsomes assessed as half life. In kind it is ADME, Microsome.
Data set [15] deals with Mus musculus. The data set is described as follows: Antitumor activity against human MDA-MB-361 cells implanted in mouse assessed as […] of cleavage of PARP at 50 mg/kg, iv after 8 hrs. It is filed as functional, organism-based. Also noted: dose 50 mg/kg.
In data set [16] the test system is Mus musculus. The data set is described as follows: Antitumor activity against human MDA-MB-361 cells implanted in mouse assessed as suppression of Akt S473 phosphorylation at 50 mg/kg, iv after 8 hrs. Also noted: dose 50 mg/kg. It is filed as functional, organism-based.
Data set [17] has as its target Phosphatidylinositol 4,5-bisphosphate 3-kinase catalytic subunit beta isoform (Homo sapiens, UniProt P42338). The data set is described as follows: Inhibition of PI3Kbeta.
Another data set is described as follows: cells. To be noted: Homo sapiens, MDA-MB-361, 4 h.
Data set [18] deals with Mus musculus. The data set is described as follows: Antitumor activity against human MDA-MB-361 cells implanted in mouse assessed as […] of cleavage of PARP at 100 mg/kg, iv after 8 hrs. It is filed as functional, organism-based. Further details: dose 100 mg/kg.
The subject of data set [19] is Mus musculus. The data set is described as follows: Antitumor activity against human MDA-MB-361 cells implanted in mouse assessed as suppression of S6 phosphorylation at 50 mg/kg, iv after 8 hrs. In kind it is functional, organism-based. Also noted: dose 50 mg/kg.
The subject of data set [20] is Mus musculus. The data set is described as follows: Antitumor activity against human MDA-MB-361 cells implanted in mouse assessed as suppression of Akt S473 phosphorylation at 100 mg/kg, iv after 8 hrs. It is filed as functional, organism-based. Further details: dose 100 mg/kg.
The nature of data set [21]: Drug level in human MDA-MB-361 cells implanted mouse tumor at 50 mg/kg, iv after 8 hrs. In kind it is ADME, organism-based, Neoplasm. Also noted: dose 50 mg/kg, route intravenous. To be noted: read-out: Drug uptake.
Data set [22] is described as follows: Solubility at pH 3. As to conditions: buffer. It is filed as physicochemical.
Data set [23] relates to Mus musculus. The data set is described as follows: Antitumor activity against human MDA-MB-361 cells implanted in mouse assessed as suppression of Akt T308 phosphorylation at 50 mg/kg, iv after 8 hrs. In kind it is functional, organism-based. Further details: dose 50 mg/kg.
The species entered for data set [24] is Mus musculus. The data set is described as follows: Toxicity in mouse assessed as weight loss. In kind it is organism-based. As to conditions: in vivo.
Data set [25] concerns Mus musculus. The data set is described as follows: Antitumor activity against human MDA-MB-361 cells implanted in mouse assessed as suppression of P70S6K phosphorylation at 50 mg/kg, iv after 8 hrs. Further details: dose 50 mg/kg. It is filed as functional, organism-based.

≈ marks a conversion by molar mass, not a printed value. Calls of active or inactive are those of the source. No cut-off for these calls is given here. Some results are limits rather than exact numbers.

Experimental findings from ChEMBL document CHEMBL1157707, “Lead optimization of N-3-substituted 7-morpholinotriazolopyrimidines as dual phosphoinositide 3-kinase/mammalian target of rapamycin inhibitors: discovery of PKI-402” (J Med Chem, 2010) are described below.

What is called IC50 is the concentration that inhibits the measured activity by half. Lower therefore signals greater potency. In general, half-life refers to how long it takes for the measured level to halve. The term solubility denotes how much of the substance goes into solution per volume.

Sequence of Phosphatidylinositol 4,5-bisphosphate 3-kinase catalytic subunit gamma isoform (P48736 whole entry, canonical isoform): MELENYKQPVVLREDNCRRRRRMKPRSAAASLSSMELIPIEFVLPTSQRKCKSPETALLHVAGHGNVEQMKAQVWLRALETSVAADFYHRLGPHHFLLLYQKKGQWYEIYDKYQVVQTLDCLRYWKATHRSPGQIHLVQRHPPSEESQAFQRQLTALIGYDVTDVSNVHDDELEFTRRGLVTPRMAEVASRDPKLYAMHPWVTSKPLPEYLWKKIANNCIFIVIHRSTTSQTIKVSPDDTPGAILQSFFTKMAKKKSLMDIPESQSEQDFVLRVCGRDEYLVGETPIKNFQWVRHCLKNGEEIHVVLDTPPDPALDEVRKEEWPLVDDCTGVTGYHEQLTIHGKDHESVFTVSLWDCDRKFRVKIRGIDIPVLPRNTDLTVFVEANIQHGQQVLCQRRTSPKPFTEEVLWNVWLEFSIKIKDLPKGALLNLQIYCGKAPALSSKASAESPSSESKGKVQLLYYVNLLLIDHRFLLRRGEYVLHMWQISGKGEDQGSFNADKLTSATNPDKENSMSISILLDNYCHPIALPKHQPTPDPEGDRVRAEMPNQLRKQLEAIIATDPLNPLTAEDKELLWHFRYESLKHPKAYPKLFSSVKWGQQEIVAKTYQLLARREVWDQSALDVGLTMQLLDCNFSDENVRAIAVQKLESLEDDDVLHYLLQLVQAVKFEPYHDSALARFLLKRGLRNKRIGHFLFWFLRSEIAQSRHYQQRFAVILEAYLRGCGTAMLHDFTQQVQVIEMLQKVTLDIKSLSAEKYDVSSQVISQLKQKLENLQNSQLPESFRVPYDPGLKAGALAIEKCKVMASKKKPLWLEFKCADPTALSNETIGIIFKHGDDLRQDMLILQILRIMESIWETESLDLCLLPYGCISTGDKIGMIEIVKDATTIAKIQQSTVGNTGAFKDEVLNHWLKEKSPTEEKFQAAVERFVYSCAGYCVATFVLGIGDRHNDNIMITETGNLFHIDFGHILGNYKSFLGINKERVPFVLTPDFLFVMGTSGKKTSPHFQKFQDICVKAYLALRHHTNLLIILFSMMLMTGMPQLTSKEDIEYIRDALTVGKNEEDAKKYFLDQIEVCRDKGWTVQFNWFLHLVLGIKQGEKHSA
Sequence of Phosphatidylinositol 4,5-bisphosphate 3-kinase catalytic subunit beta isoform (P42338 whole entry, canonical isoform): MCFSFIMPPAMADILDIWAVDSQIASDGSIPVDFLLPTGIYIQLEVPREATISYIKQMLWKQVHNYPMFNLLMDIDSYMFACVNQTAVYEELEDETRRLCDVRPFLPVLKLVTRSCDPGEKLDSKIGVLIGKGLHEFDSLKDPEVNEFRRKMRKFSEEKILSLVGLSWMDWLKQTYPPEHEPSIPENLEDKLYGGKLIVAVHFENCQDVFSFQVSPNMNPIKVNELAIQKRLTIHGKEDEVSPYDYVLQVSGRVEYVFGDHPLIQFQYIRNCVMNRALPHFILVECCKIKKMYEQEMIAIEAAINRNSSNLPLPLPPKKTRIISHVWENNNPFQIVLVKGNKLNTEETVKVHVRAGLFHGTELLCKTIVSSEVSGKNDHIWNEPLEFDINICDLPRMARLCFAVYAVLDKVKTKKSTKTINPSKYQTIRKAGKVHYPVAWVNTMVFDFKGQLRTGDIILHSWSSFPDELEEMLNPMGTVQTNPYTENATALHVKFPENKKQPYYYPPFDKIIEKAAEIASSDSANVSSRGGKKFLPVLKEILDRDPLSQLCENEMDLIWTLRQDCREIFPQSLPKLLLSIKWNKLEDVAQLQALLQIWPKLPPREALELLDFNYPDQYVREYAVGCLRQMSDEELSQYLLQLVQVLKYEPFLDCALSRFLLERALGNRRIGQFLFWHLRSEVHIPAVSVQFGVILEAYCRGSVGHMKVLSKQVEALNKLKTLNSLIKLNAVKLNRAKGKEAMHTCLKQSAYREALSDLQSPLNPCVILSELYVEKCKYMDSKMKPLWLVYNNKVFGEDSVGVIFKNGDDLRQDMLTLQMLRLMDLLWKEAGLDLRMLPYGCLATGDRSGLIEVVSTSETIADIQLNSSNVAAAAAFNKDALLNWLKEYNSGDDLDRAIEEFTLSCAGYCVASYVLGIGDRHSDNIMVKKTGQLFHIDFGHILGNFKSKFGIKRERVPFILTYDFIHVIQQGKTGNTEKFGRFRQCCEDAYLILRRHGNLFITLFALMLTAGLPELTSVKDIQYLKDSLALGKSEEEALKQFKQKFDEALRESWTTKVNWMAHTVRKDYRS
Sequence of Phosphatidylinositol 4,5-bisphosphate 3-kinase catalytic subunit alpha isoform (P42336 whole entry, canonical isoform): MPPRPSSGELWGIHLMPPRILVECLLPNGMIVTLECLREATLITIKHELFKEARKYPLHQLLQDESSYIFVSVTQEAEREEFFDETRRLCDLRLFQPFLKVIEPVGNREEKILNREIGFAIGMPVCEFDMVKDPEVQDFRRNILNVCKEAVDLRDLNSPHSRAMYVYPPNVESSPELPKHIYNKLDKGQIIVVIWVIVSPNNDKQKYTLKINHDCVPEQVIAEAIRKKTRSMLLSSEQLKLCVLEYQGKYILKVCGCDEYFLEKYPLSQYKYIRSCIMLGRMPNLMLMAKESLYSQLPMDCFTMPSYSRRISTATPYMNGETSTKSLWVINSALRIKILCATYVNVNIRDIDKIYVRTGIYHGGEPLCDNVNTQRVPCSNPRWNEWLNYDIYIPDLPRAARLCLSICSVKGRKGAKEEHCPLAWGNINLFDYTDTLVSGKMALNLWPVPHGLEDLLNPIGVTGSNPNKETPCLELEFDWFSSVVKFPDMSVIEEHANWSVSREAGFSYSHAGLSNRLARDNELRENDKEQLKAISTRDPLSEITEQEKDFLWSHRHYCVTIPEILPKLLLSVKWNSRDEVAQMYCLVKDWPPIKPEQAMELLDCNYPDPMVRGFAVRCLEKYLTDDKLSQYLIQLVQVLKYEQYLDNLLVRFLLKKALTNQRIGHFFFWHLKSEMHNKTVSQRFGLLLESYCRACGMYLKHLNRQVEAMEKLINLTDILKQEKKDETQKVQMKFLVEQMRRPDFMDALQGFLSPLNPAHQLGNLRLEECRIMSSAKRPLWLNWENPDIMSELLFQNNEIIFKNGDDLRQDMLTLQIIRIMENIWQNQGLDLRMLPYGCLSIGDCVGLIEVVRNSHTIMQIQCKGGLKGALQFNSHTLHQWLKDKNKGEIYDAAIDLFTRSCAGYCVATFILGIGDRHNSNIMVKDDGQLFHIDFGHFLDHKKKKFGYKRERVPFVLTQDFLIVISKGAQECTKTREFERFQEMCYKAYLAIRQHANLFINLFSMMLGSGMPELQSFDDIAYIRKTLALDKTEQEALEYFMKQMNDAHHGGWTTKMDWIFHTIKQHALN

Take `CC(C)n1nnc2c(N3CCOCC3)nc(-c3ccc(NC(=O)Nc4ccc(CO)cc4)cc3)nc21`: the concentration for half-maximal inhibition (IC50) was < 30 nM in the data set on MDA-MB-361 [1]; 3.5 nM in data set [2]; 24.8 nM in data set [3]; 0.32 nM in [4]; 55 nM in the data set on PC-3; 8 nM in [5].
Take `CCn1nnc2c(N3CCOCC3)nc(-c3ccc(NC(=O)Nc4ccc(C(=O)N5CCN(C)CC5)cc4)cc3)nc21`: the half-life was 15 min in “in vitro”, > 30 min in data set [9] and > 30 min in data set [14]. In addition, the outcome with Mus musculus [6], in the data set on Mus musculus [8], in the data set on Mus musculus [11], in the data set with MDA-MB-361 [12], with Mus musculus [15] and in the data set with Mus musculus [16] was Active. Also, the result in the data set on Mus musculus [18], in the data set with Mus musculus [19], in the data set with Mus musculus [20], in the data set on Mus musculus [23] and in the data set with Mus musculus [25] was Active. For the same compound, the outcome with MDA-MB-361 [7] and with MDA-MB-361 [13] was inactive. The concentration at 8 h in data set [10] came out at 0.525 µg/mL; in data set [21], 2.22 µg/mL. Besides, the IC50 in data set [4] was found to be 1.7 nM; in data set [17], 7 nM; in the data set “cells” it was 5 nM. In data set [22], this compound came in with a solubility of 0.1 mg/mL (≈ 175 µM). Besides, the Activity result in the data set filed under Mus musculus [24] is “Non-toxic”.
